Assay results as given in patent US10766888B1, “HMOX1 inducers” (Mitobridge Inc., priority 2019, dated 2020).
≈ marks a conversion by molar mass, not a printed value. Counter-ions that a name gives are not always drawn.

Key:
Kinetic solubility = format: physicochemical; conditions: Dulbecco's phosphate buffer saline (DPBS), aqueous buffer, kinetic from dmso stock, DPBS pH 7.4, 25° C., 200 μM test compound
Method: Example 144. Kinetic Solubility
10 μL of 10 mM DMSO stock solution were aliquotted to 490 μL of DMSO solution and separately 490 μL of Dulbecco's phosphate buffer saline, DPBS, pH 7.4 solution in 1.2 mL 96-well plates in duplicate. Final concentration was 200 μM of the test compound. Samples were incubated at 25° C. with shaking at 200 rpm for 16 h. Samples were centrifuged at 3500 rpm for 20 min at 25° C., and supernatant was submitted for HPLC analysis.
Kinetic solubility was measured using the following equation: […]

[1] = system: Human Heme Oxygenase-1 (HMOX-1); experiment: ELISA assay to measure human heme oxygenase-1 (HMOX-1) in HepG2 lysate; format: cell-based; conditions: for EC50: human HMOX1 protein level in HepG2 lysate, * = average of 2 or more EC50 determinations, NA = Not Active, read-out: EC50; for Maximum Fold induction: fold change of human HMOX1 protein level relative to DMSO control, HepG2
Method: Example 143. ELISA Assay to Measure Human Heme Oxygenase-1 (HMOX-1) in HepG2 lysate
Reagents and Technical Notes:
ELISA capture antibody, standard HO-1, detection antibody and streptavidin HRP were supplied in the DuoSet IC Human total HO-1 ELISA from R&D systems (DYC3776-2). The substrate cocktail was KPL LumiGLO reserve Chemiluminescent Substrate (54-71-00). PBS was Corning Cellgro Cell Culture (21-040-CV). 10×PBS+0.05% tween20 (PBST) was from KPL.
All incubations of the plate were at room temperature (20° C.) in a closed drawer.
The ELISA plate was processed manually. All loadings were with a multichannel pipet. Plates were emptied by shaking into the sink and tapping onto paper towels to remove any remaining reagent. Plate washing was accomplished by loading all wells with PBS+0.05% tween20 (PBST) using a squirt bottle, shaking the PBST out and tapping the plate onto paper towels.
Preparation of the ELISA Plate:
• 1. anti-HO-1 capture antibody was 1440 μg/ml after reconstitution in PBS. This antibody was diluted to 8 μg/ml in PBS and 50 μl per well was added to a 384 well greiner “lumitrac 200” plate. Incubated overnight. • 2. The plate was emptied and 100 μl PBS+1% BSA added to all wells. Incubated 90 minutes at room temperature. Preparation of HepG2 Lysate: • 1. Cells were cultured in a 96-well tissue culture plate washed with PBS and then the plate frozen at −70° C. overnight. Plates were allowed to warm to ice temperature in an ice bucket. 20 μl of PBS, 0.5% Triton X100, 1 mM EDTA with 1×HALT™ protease inhibitors was added to each well and the plates incubated on ice for 1 hour. • 2. The lysates were frozen at −20° C. overnight. Measurement of HMOX1 (“HO-1”) • 1. In a polypropylene 384 well plate, human HO-1 (after reconstitution in PBS+0.5% Triton+1 mM EDTA) was serially diluted from 20 ng/ml 2-fold in PBS+0.5% triton-X100, 1 mM EDTA to make a 12-point standard curve including a zero point. • 2. In a polypropylene 96 well plate, HepG2 lysate was diluted 1 to 20 in Diluent #4 from DUOSET kit in which the assay standard is also diluted. • 3. The PBS+1% BSA was emptied from the ELISA plate and 30 μl of all samples and standards were added (duplicates recommended). The plate was incubated 90 minutes. • 4. Emptied plate and washed 4 times with PBST. • 5. Diluted HO-1 detection antibody to 200 ng/ml in PBS+1% BSA and added 30 μl to all wells. Incubated 90 minutes. • 6. Emptied plate and washed 4 times with PBST. • 7. Added 30 μl streptavidin HRP at 1/200 in PBS+1% BSA (stock streptavidin concentration not specified) to all wells. Incubated 30 minutes. • 8. Emptied plate and washed 4 times with PBST. • 9. Diluted Lumiglo reserve reagent two parts buffer to one part lumiglo substrate. Added 30 μl to all wells. Incubated 5 minutes. • 10. Measured chemiluminescence on spectramax M5 using 150 ms integration.
Table 1 below lists EC50 and fold changes of human HMOX1 protein levels relative to DMSO control upon treatment with representative compounds.

solubility at 16 h (Kinetic solubility) [µM]	EC50 [1] [µM]	Maximum Fold induction [1] [fold]	Structure (SMILES)
< 2	1.4	–	Cn1c(Nc2nc3ccc(-c4cscn4)cc3o2)nc2cc(C(=O)NCCOCCO)ccc21 [Example 134, N-(2-(2-hydroxyethoxy)ethyl)-1-methyl-2-((6-(thiazol-4-yl)benzo[d]oxazol-2-yl)amino)-1H-benzo[d]imidazole-5-carboxamide]
13.8 (≈ 6.59 µg/mL)	4.8	–	Cn1c(Nc2nc3ccc(C(F)(F)F)cc3o2)nc2cc(C(=O)NCCOCC(=O)O)ccc21 [Example 41, 2-(2-(1-methyl-2-((6-(trifluoromethyl)benzo[d]oxazol-2-yl)amino)-1H-benzo[d]imidazole-5-carboxamido)ethoxy)acetic acid]
8.6 (≈ 3.94 µg/mL)	–	–	CC(=O)N1CCc2nc(Nc3nc4cc(C(=O)NCCOCCO)ccc4n3C)sc2C1 [Example 10, 2-((5-acetyl-4,5,6,7-tetrahydrothiazolo[5,4-c]pyridin-2-yl)amino)-N-(2-(2-hydroxyethoxy)ethyl)-1-methyl-1H-benzo[d]imidazole-5-carboxamide]
1.4 (≈ 0.607 µg/mL)	0.5	–	COCCNC(=O)c1ccc2c(c1)nc(Nc1nc3ccc(C(F)(F)F)cc3o1)n2C [Example 32, N-(2-methoxyethyl)-1-methyl-2-((6-(trifluoromethyl)benzo[d]oxazol-2-yl)amino)-1H-benzo[d]imidazole-5-carboxamide]
12.2 (≈ 5.04 µg/mL)	–	–	Cn1c(Nc2nc3nccnc3s2)nc2cc(C(=O)NCCOCCO)ccc21 [Example 114, N-(2-(2-hydroxyethoxy)ethyl)-1-methyl-2-(thiazolo[4,5-b]pyrazin-2-ylamino)-1H-benzo[d]imidazole-5-carboxamide]
10.6 (≈ 4.49 µg/mL)	–	–	Cn1c(Nc2nc3ccccc3o2)nc2cc(C(=O)NCCOCC(C)(C)O)ccc21 [Example 27, 2-(benzo[d]oxazol-2-ylamino)-N-(2-(2-hydroxy-2-methylpropoxy)ethyl)-1-methyl-1H-benzo[d]imidazole-5-carboxamide]
19.3 (≈ 7.9 µg/mL)	–	–	Cn1c(Nc2nc3ccccc3o2)nc2cc(C(=O)NCCOCC(=O)O)ccc21 [Example 29, 2-(2-(2-(benzo[d]oxazol-2-ylamino)-1-methyl-1H-benzo[d]imidazole-5-carboxamido)ethoxy)acetic acid]
9.1 (≈ 3.83 µg/mL)	–	–	Cn1c(Nc2nc3ccc(C(F)(F)F)nc3o2)nc2cc(C(=O)NCCO)ccc21 [Example 113, N-(2-hydroxyethyl)-1-methyl-2-((5-(trifluoromethyl)oxazolo[5,4-b]pyridin-2-yl)amino)-1H-benzo[d]imidazole-5-carboxamide]
–	5.3	–	Cn1c(Nc2nc3cc(C(=O)O)ccc3n2C)nc2cc(OC(F)(F)F)ccc21 [Example 15, 1-methyl-2-((1-methyl-5-(trifluoromethoxy)-1H-benzo[d]imidazol-2-yl)amino)-1H-benzo[d]imidazole-5-carboxylic acid]
4 (≈ 1.89 µg/mL)	–	–	Cn1cc(NC(=O)c2ccc3c(c2)nc(Nc2nc4ccc(OC(F)(F)F)cc4o2)n3C)cn1 [Example 50, 1-methyl-N-(1-methyl-1H-pyrazol-4-yl)-2-((6-(trifluoromethoxy)benzo[d]oxazol-2-yl)amino)-1H-benzo[d]imidazole-5-carboxamide]
–	4.4	–	Cn1c(Nc2nc3ccccc3o2)nc2cc(C(=O)O)ccc21 [Example 1h, 2-(benzo[d]oxazol-2-ylamino)-1-methyl-1H-benzo[d]imidazole-5-carboxylic acid]
12.4 (≈ 4.73 µg/mL)	–	–	Cn1c(Nc2nc3ccccc3o2)nc2cc(C(=O)NCC(O)CO)ccc21 (centres unmarked) [Example 24, 2-(benzo[d]oxazol-2-ylamino)-N-(2,3-dihydroxypropyl)-1-methyl-1H-benzo[d]imidazole-5-carboxamide]
–	4.5	15	COCCOc1ccc2nc(Nc3nc4cc(C(=O)O)ccc4n3C)oc2c1 [Example 55, 2-((6-(2-methoxyethoxy)benzo[d]oxazol-2-yl)amino)-1-methyl-1H-benzo[d]imidazole-5-carboxylic acid]
–	4.1	–	Cn1c(Nc2nc3ccc(OCCO)cc3o2)nc2cc(C(=O)NCCN)ccc21 [Example 105, N-(2-aminoethyl)-2-((6-(2-hydroxyethoxy)benzo[d]oxazol-2-yl)amino)-1-methyl-1H-benzo[d]imidazole-5-carboxamide hydrochloride]
–	3.3	–	CC(C)c1ccc2nc(Nc3nc4cc(C(=O)O)ccc4n3C)oc2c1 [Example 59, 2-((6-isopropylbenzo[d]oxazol-2-yl)amino)-1-methyl-1H-benzo[d]imidazole-5-carboxylic acid]
–	2.7	–	COCCNC(=O)c1ccc2c(c1)nc(Nc1nc3cc(OC(F)(F)F)ccc3[nH]1)n2CCOC [Example 76, N,1-bis(2-methoxyethyl)-2-((5-(trifluoromethoxy)-1H-benzo[d]imidazol-2-yl)amino)-1H-benzo[d]imidazole-5-carboxamide]
–	6.2	–	Cn1c(Nc2nc3ccc(C4CC4)cc3o2)nc2cc(C(=O)O)ccc21 [Example 115, 2-((6-cyclopropylbenzo[d]oxazol-2-yl)amino)-1-methyl-1H-benzo[d]imidazole-5-carboxylic acid]
–	4.1	–	Cn1c(Nc2nc3ccc(OCC(F)(F)F)cc3o2)nc2cc(C(=O)O)ccc21 [Example 98, 1-methyl-2-((6-(2,2,2-trifluoroethoxy)benzo[d]oxazol-2-yl)amino)-1H-benzo[d]imidazole-5-carboxylic acid]
–	3.6	–	CN(C)CCn1c(Nc2nc3ccc(OC(F)(F)F)cc3o2)nc2cc(C(=O)O)ccc21 [Example 74, 1-(2-(dimethylamino)ethyl)-2-((6-(trifluoromethoxy)benzo[d]oxazol-2-yl)amino)-1H-benzo[d]imidazole-5-carboxylic acid]
–	1.2	15.42	COCCNC(=O)c1ccc2c(c1)nc(Nc1nc3cc(C)ccc3o1)n2C [Example 65, N-(2-methoxyethyl)-1-methyl-2-((5-methylbenzo[d]oxazol-2-yl)amino)-1H-benzo[d]imidazole-5-carboxamide]
< 2	–	–	Cn1c(Nc2nc3ccc(C(F)(F)F)cc3o2)nc2cc(C(=O)NCCN3CCCCC3)ccc21 [Example 37, 1-methyl-N-(2-(piperidin-1-yl)ethyl)-2-((6-(trifluoromethyl)benzo[d]oxazol-2-yl)amino)-1H-benzo[d]imidazole-5-carboxamide]
–	2	–	Cn1c(Nc2nc3ccc(OC4CCOCC4)cc3o2)nc2cc(C(=O)NCCOCCO)ccc21 [Example 138, N-(2-(2-hydroxyethoxy)ethyl)-1-methyl-2-((6-((tetrahydro-2H-pyran-4-yl)oxy)benzo[d]oxazol-2-yl)amino)-1H-benzo[d]imidazole-5-carboxamide]
–	1.5	–	COCCNC(=O)c1ccc2c(c1)nc(Nc1nc3ccc(OC(F)(F)F)cc3o1)n2CC1CCOC1 (centres unmarked) [Example 88, N-(2-methoxyethyl)-1-((tetrahydrofuran-3-yl)methyl)-2-((6-(trifluoromethoxy)benzo[d]oxazol-2-yl)amino)-1H-benzo[d]imidazole-5-carboxamide]
–	2.4	–	Cn1c(Nc2nc3cc(Cl)ccc3[nH]2)nc2cc(C(=O)O)ccc21 [Example 82, 2-((5-chloro-1H-benzo[d]imidazol-2-yl)amino)-1-methyl-1H-benzo[d]imidazole-5-carboxylic acid]
